The results in this text go back to PubChem BioAssay (NCI).

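Where inhibition never reached the appropriate level, the endpoint shown equals the highest concentration tested. Otherwise, values were interpolated linearly from a five-concentration, 48-hour dose response in 96-well plates. TGI: concentration producing complete growth inhibition.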 A value given as a limit tells only on which side of the number the result lay.

One assay has as its system NCI-H226 lung. Put plainly: inhibition of tumour cell growth, NCI panel, 48 h.
Turning to `COc1cc(C2c3cc4c(cc3OC(C)(O)C2C)OCO4)cc(OC)c1OC` (configuration not stated), the TGI came to 13.5 µM.

Compound `COC(=O)C1=C(C)NC(C)=C(C(=O)OCCCN2CCC(c3ccccc3)(c3ccccc3)CC2)C1c1cccc([N+](=O)[O-])c1` (configuration not stated) came in with a TGI of 18.2 µM.

`CC1=NN(c2cccc(Cl)c2)C2(SCC(=O)N2c2nc3ccccc3s2)/C1=C\c1ccccc1O` (configuration not stated): the TGI was above 100 µM.

Take `O=C(Nc1nccs1)c1c(O)nc2sccn2c1=O`: the TGI is above 10 µM.

Another assay has as its system NCI-H23 lung. Briefly: inhibition of tumour cell growth, NCI panel, 48 h.
Compound `COc1cc(C2c3cc4c(cc3OC(C)(O)C2C)OCO4)cc(OC)c1OC` (configuration not stated) displayed a TGI above 100 µM.

Consider `COC(=O)C1=C(C)NC(C)=C(C(=O)OCCCN2CCC(c3ccccc3)(c3ccccc3)CC2)C1c1cccc([N+](=O)[O-])c1` (configuration not stated), for which the TGI is 3.32 µM.

Regarding `CC1=NN(c2cccc(Cl)c2)C2(SCC(=O)N2c2nc3ccccc3s2)/C1=C\c1ccccc1O` (configuration not stated), the TGI came out at 41.3 µM.

In turn, `O=C(Nc1nccs1)c1c(O)nc2sccn2c1=O` showed a TGI above 10 µM.

The subject of another assay is NCI-H460 lung. Put plainly: inhibition of tumour cell growth, NCI panel, 48 h.
The compound `COc1cc(C2c3cc4c(cc3OC(C)(O)C2C)OCO4)cc(OC)c1OC` (configuration not stated) showed a TGI above 100 µM.

The compound `COC(=O)C1=C(C)NC(C)=C(C(=O)OCCCN2CCC(c3ccccc3)(c3ccccc3)CC2)C1c1cccc([N+](=O)[O-])c1` (configuration not stated) showed a TGI of 3.35 µM.

Consider `CC1=NN(c2cccc(Cl)c2)C2(SCC(=O)N2c2nc3ccccc3s2)/C1=C\c1ccccc1O` (configuration not stated), for which the TGI was above 100 µM.

As for `O=C(Nc1nccs1)c1c(O)nc2sccn2c1=O`, the TGI was above 10 µM.

In a further assay the test system is NCI-H522 lung. Briefly: inhibition of tumour cell growth, NCI panel, 48 h.
The compound `COc1cc(C2c3cc4c(cc3OC(C)(O)C2C)OCO4)cc(OC)c1OC` (configuration not stated) returned a TGI of 1.19 µM.

For the compound `COC(=O)C1=C(C)NC(C)=C(C(=O)OCCCN2CCC(c3ccccc3)(c3ccccc3)CC2)C1c1cccc([N+](=O)[O-])c1` (configuration not stated), the TGI came out at 4.72 µM.

Turning to `CC1=NN(c2cccc(Cl)c2)C2(SCC(=O)N2c2nc3ccccc3s2)/C1=C\c1ccccc1O` (configuration not stated), the TGI came out at 42.4 µM.

The compound `O=C(Nc1nccs1)c1c(O)nc2sccn2c1=O` had a TGI above 10 µM.

Another assay relates to NCI/ADR-RES ovarian. Put plainly: inhibition of tumour cell growth, NCI panel, 48 h.
`COc1cc(C2c3cc4c(cc3OC(C)(O)C2C)OCO4)cc(OC)c1OC` (configuration not stated): the TGI is above 100 µM.

The compound `COC(=O)C1=C(C)NC(C)=C(C(=O)OCCCN2CCC(c3ccccc3)(c3ccccc3)CC2)C1c1cccc([N+](=O)[O-])c1` (configuration not stated) displayed a TGI of 3.42 µM.

In the case of `CC1=NN(c2cccc(Cl)c2)C2(SCC(=O)N2c2nc3ccccc3s2)/C1=C\c1ccccc1O` (configuration not stated), the TGI was 55.5 µM.

In turn, `O=C(Nc1nccs1)c1c(O)nc2sccn2c1=O` returned a TGI above 10 µM.

Another assay concerns OVCAR-3 ovarian. Briefly: inhibition of tumour cell growth, NCI panel, 48 h.
`COc1cc(C2c3cc4c(cc3OC(C)(O)C2C)OCO4)cc(OC)c1OC` (configuration not stated) displayed a TGI above 100 µM.

Take `COC(=O)C1=C(C)NC(C)=C(C(=O)OCCCN2CCC(c3ccccc3)(c3ccccc3)CC2)C1c1cccc([N+](=O)[O-])c1` (configuration not stated): the TGI is 2.8 µM.

In the case of `CC1=NN(c2cccc(Cl)c2)C2(SCC(=O)N2c2nc3ccccc3s2)/C1=C\c1ccccc1O` (configuration not stated), the TGI was 80.3 µM.

As for `O=C(Nc1nccs1)c1c(O)nc2sccn2c1=O`, the TGI was above 10 µM.

The subject of another assay is OVCAR-4 ovarian. Briefly: inhibition of tumour cell growth, NCI panel, 48 h.
With `COC(=O)C1=C(C)NC(C)=C(C(=O)OCCCN2CCC(c3ccccc3)(c3ccccc3)CC2)C1c1cccc([N+](=O)[O-])c1` (configuration not stated), the TGI is 2.98 µM.

Regarding `CC1=NN(c2cccc(Cl)c2)C2(SCC(=O)N2c2nc3ccccc3s2)/C1=C\c1ccccc1O` (configuration not stated), the TGI is above 100 µM.

`O=C(Nc1nccs1)c1c(O)nc2sccn2c1=O` displayed a TGI above 10 µM.

The test system of another assay is OVCAR-5 ovarian. Briefly: inhibition of tumour cell growth, NCI panel, 48 h.
With `COc1cc(C2c3cc4c(cc3OC(C)(O)C2C)OCO4)cc(OC)c1OC` (configuration not stated), the TGI is above 100 µM.

`COC(=O)C1=C(C)NC(C)=C(C(=O)OCCCN2CCC(c3ccccc3)(c3ccccc3)CC2)C1c1cccc([N+](=O)[O-])c1` (configuration not stated) gave a TGI of 7.3 µM.

As for `CC1=NN(c2cccc(Cl)c2)C2(SCC(=O)N2c2nc3ccccc3s2)/C1=C\c1ccccc1O` (configuration not stated), the TGI is above 100 µM.

Compound `O=C(Nc1nccs1)c1c(O)nc2sccn2c1=O` returned a TGI above 10 µM.

The subject of the next assay is OVCAR-8 ovarian. Put plainly: inhibition of tumour cell growth, NCI panel, 48 h.
In turn, `COc1cc(C2c3cc4c(cc3OC(C)(O)C2C)OCO4)cc(OC)c1OC` (configuration not stated) displayed a TGI above 100 µM.

`COC(=O)C1=C(C)NC(C)=C(C(=O)OCCCN2CCC(c3ccccc3)(c3ccccc3)CC2)C1c1cccc([N+](=O)[O-])c1` (configuration not stated) had a TGI of 3.39 µM.

For the compound `CC1=NN(c2cccc(Cl)c2)C2(SCC(=O)N2c2nc3ccccc3s2)/C1=C\c1ccccc1O` (configuration not stated), the TGI was determined as 42 µM.

The compound `O=C(Nc1nccs1)c1c(O)nc2sccn2c1=O` registered a TGI above 10 µM.

The test system of a further assay is PC-3 prostate. Put plainly: inhibition of tumour cell growth, NCI panel, 48 h.
Compound `COc1cc(C2c3cc4c(cc3OC(C)(O)C2C)OCO4)cc(OC)c1OC` (configuration not stated) had a TGI above 100 µM.

`COC(=O)C1=C(C)NC(C)=C(C(=O)OCCCN2CCC(c3ccccc3)(c3ccccc3)CC2)C1c1cccc([N+](=O)[O-])c1` (configuration not stated) showed a TGI of 3.05 µM.

`CC1=NN(c2cccc(Cl)c2)C2(SCC(=O)N2c2nc3ccccc3s2)/C1=C\c1ccccc1O` (configuration not stated) gave a TGI of 61.1 µM.

For `O=C(Nc1nccs1)c1c(O)nc2sccn2c1=O`, the TGI was above 10 µM.

A further assay has as its system RPMI-8226 leukemia. Briefly: inhibition of tumour cell growth, NCI panel, 48 h.
Consider `COc1cc(C2c3cc4c(cc3OC(C)(O)C2C)OCO4)cc(OC)c1OC` (configuration not stated), for which the TGI turned out to be 0.721 µM.

`COC(=O)C1=C(C)NC(C)=C(C(=O)OCCCN2CCC(c3ccccc3)(c3ccccc3)CC2)C1c1cccc([N+](=O)[O-])c1` (configuration not stated) had a TGI of 5.82 µM.

`CC1=NN(c2cccc(Cl)c2)C2(SCC(=O)N2c2nc3ccccc3s2)/C1=C\c1ccccc1O` (configuration not stated) came in with a TGI of 40.3 µM.

Compound `O=C(Nc1nccs1)c1c(O)nc2sccn2c1=O` registered a TGI above 10 µM.

The subject of the next assay is RXF 393 renal. Briefly: inhibition of tumour cell growth, NCI panel, 48 h.
For `COC(=O)C1=C(C)NC(C)=C(C(=O)OCCCN2CCC(c3ccccc3)(c3ccccc3)CC2)C1c1cccc([N+](=O)[O-])c1` (configuration not stated), the TGI amounted to 3.43 µM.

The compound `CC1=NN(c2cccc(Cl)c2)C2(SCC(=O)N2c2nc3ccccc3s2)/C1=C\c1ccccc1O` (configuration not stated) registered a TGI of 32.8 µM.

For `O=C(Nc1nccs1)c1c(O)nc2sccn2c1=O`, the TGI is above 10 µM.

The next assay deals with SF-268 CNS. Briefly: inhibition of tumour cell growth, NCI panel, 48 h.
On to `COc1cc(C2c3cc4c(cc3OC(C)(O)C2C)OCO4)cc(OC)c1OC` (configuration not stated), for which the TGI was above 100 µM.

As for `COC(=O)C1=C(C)NC(C)=C(C(=O)OCCCN2CCC(c3ccccc3)(c3ccccc3)CC2)C1c1cccc([N+](=O)[O-])c1` (configuration not stated), the TGI amounted to 3.47 µM.

For the compound `CC1=NN(c2cccc(Cl)c2)C2(SCC(=O)N2c2nc3ccccc3s2)/C1=C\c1ccccc1O` (configuration not stated), the TGI came to 64.7 µM.

For `O=C(Nc1nccs1)c1c(O)nc2sccn2c1=O`, the TGI is above 10 µM.

In another assay the test system is SF-295 CNS. Put plainly: inhibition of tumour cell growth, NCI panel, 48 h.
As to `COC(=O)C1=C(C)NC(C)=C(C(=O)OCCCN2CCC(c3ccccc3)(c3ccccc3)CC2)C1c1cccc([N+](=O)[O-])c1` (configuration not stated), the TGI was found to be 3.18 µM.

Consider `CC1=NN(c2cccc(Cl)c2)C2(SCC(=O)N2c2nc3ccccc3s2)/C1=C\c1ccccc1O` (configuration not stated), for which the TGI is above 100 µM.
